Laboratory results: ChEMBL document CHEMBL1201862, “PubChem BioAssay data set” (2004)
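Growth conditions: 96-well plates. Treatment: test compound, 48 hours, 5 concentrations. Analysis: linear interpolation between bracketing concentrations; unreached endpoints set to highest concentration. GI50 is the concentration that inhibits growth by half.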 Activity calls are given as the source filed them. Rule as the data show it: active = GI50 up to about 1.1 µM and inactive = higher.

Legend:
Assay in all cases: inhibition of tumour cell growth, NCI panel, 48 h
[1] = system: HCT-116
[2] = system: OVCAR-5
[3] = system: ACHN
[4] = system: T47D
[5] = system: OVCAR-4
[6] = system: UACC-257
[7] = system: A498
[8] = system: MDA-N
[9] = system: SNB-19
[10] = system: EKVX
[11] = system: SF-295
[12] = system: MDA-MB-435
[13] = system: RXF 393
[14] = system: MCF7
[15] = system: M14
[16] = system: HCC 2998
[17] = system: LOX IMVI
[18] = system: MDA-MB-231
[19] = system: SW-620

| Compound | GI50 [1] | GI50 [2] | GI50 [3] | GI50 [4] | GI50 [5] | GI50 [6] | GI50 [7] | GI50 [8] | GI50 [9] | GI50 [10] | GI50 [11] | GI50 [12] | GI50 [13] | GI50 [14] | GI50 [15] | GI50 [16] | GI50 [17] | GI50 [18] | GI50 [19] |
| --- | --- | --- | --- | --- | --- | --- | --- | --- | --- | --- | --- | --- | --- | --- | --- | --- | --- | --- | --- |
| CC(C)C1CC(CO)(CNc2nc(N)nc(Cl)c2/C=N\O)C1 (stereo not given) | 12.6 µM (inactive) | 20.1 µM (inactive) | 8.51 µM (inactive) | 1.25 µM (inactive) | 2.35 µM (inactive) | 0.656 µM (active) | 12.3 µM (inactive) | 11.3 µM (inactive) | 20.1 µM (inactive) | 0.264 µM (active) | 1.01 µM (active) | 12.6 µM (inactive) | 18.8 µM (inactive) | 0.687 µM (active) | 13.1 µM (inactive) | 3.94 µM (inactive) | 0.339 µM (active) | 12.6 µM (inactive) | 22.5 µM (inactive) |
| COC(=O)C(Cc1ccccc1)NP(=O)(O)OCC1OC(n2cc(Br)c(=O)[nH]c2=O)CC1O (stereo not given) | > 100 µM (inactive) | > 100 µM (inactive) | > 100 µM (inactive) | > 100 µM (inactive) | > 100 µM (inactive) | > 100 µM (inactive) | > 100 µM (inactive) | > 100 µM (inactive) | > 100 µM (inactive) | > 100 µM (inactive) | > 100 µM (inactive) | > 100 µM (inactive) | > 100 µM (inactive) | > 100 µM (inactive) | > 100 µM (inactive) | > 100 µM (inactive) | > 100 µM (inactive) | > 100 µM (inactive) | > 100 µM (inactive) |
| COc1cc(CNc2nc3ccccc3n2Cc2ccccc2)cc(CN2CCOCC2)c1O | 21.2 µM (inactive) | 26.5 µM (inactive) | 39.6 µM (inactive) | > 100 µM (inactive) | 61.4 µM (inactive) | 20.1 µM (inactive) | 21.1 µM (inactive) | 27.4 µM (inactive) | 61.8 µM (inactive) | 53.3 µM (inactive) | 19.3 µM (inactive) | 22.5 µM (inactive) | 18.2 µM (inactive) | 31.7 µM (inactive) | 24.7 µM (inactive) | 33.9 µM (inactive) | 15.5 µM (inactive) | 18.7 µM (inactive) | 45.6 µM (inactive) |
| COC(=O)CCC(=O)c1ccc2c(c1)CC1(C2)Cc2ccc(C(=O)CCC(=O)OC)cc2C1 | > 100 µM (inactive) | > 100 µM (inactive) | 25.8 µM (inactive) | 56 µM (inactive) | 32.7 µM (inactive) | 85.1 µM (inactive) | 45 µM (inactive) | 73.1 µM (inactive) | – | > 100 µM (inactive) | 53.8 µM (inactive) | > 100 µM (inactive) | > 100 µM (inactive) | 44.1 µM (inactive) | 66.5 µM (inactive) | > 100 µM (inactive) | > 100 µM (inactive) | 60.1 µM (inactive) | – |
| COC1C=COC2(C)Oc3c(C)c(O)c4c(c3C2=O)/C(=N/C2CCC(O)OC2C)C=C(NC(=O)/C(C)=C\C(=O)C2CC2C(O)C(C)C(O)C(C)C(OC(C)=O)C1C)C4=O (stereo not given) | 1.79 µM (inactive) | 2.88 µM (inactive) | 3.13 µM (inactive) | 2.69 µM (inactive) | 3.09 µM (inactive) | 2.22 µM (inactive) | 3.05 µM (inactive) | 1.88 µM (inactive) | 3.47 µM (inactive) | 3.13 µM (inactive) | 3.72 µM (inactive) | 1.79 µM (inactive) | 1.86 µM (inactive) | 1.89 µM (inactive) | 1.97 µM (inactive) | 2.47 µM (inactive) | 1.61 µM (inactive) | 2.07 µM (inactive) | 1.88 µM (inactive) |
| Cc1ccc(N(C=O)c2c([N+](=O)[O-])cc([N+](=O)[O-])c3c2=[N+]([O-])CN=3)cc1 | 24.8 µM (inactive) | > 100 µM (inactive) | 24.8 µM (inactive) | 17.5 µM (inactive) | 30.9 µM (inactive) | 21 µM (inactive) | 39.6 µM (inactive) | 27.5 µM (inactive) | 66.8 µM (inactive) | > 100 µM (inactive) | 65.5 µM (inactive) | 30.8 µM (inactive) | 20.7 µM (inactive) | 21.2 µM (inactive) | 20.8 µM (inactive) | 14 µM (inactive) | 21.9 µM (inactive) | 18.5 µM (inactive) | 45.4 µM (inactive) |
| Cc1cccc2c(N)c3cccc(C(=O)NCC[N+]4(Cc5ccc([N+](=O)[O-])cc5)CCOCC4)c3nc12 | 16.1 µM (inactive) | > 100 µM (inactive) | 29 µM (inactive) | 29.2 µM (inactive) | 61.9 µM (inactive) | 60.3 µM (inactive) | 42.2 µM (inactive) | 59.6 µM (inactive) | 18.2 µM (inactive) | 36.2 µM (inactive) | 27.5 µM (inactive) | 80.5 µM (inactive) | 62.2 µM (inactive) | 38.9 µM (inactive) | 71.8 µM (inactive) | 12.3 µM (inactive) | 39.9 µM (inactive) | > 60.1 µM (inactive) | 44.2 µM (inactive) |
| COc1ccc(/C(C)=C2\CCCN(Cc3ccccc3)C2)cc1 | – | 31.4 µM (inactive) | 28.1 µM (inactive) | 22.5 µM (inactive) | 27.2 µM (inactive) | 29.2 µM (inactive) | 33.7 µM (inactive) | 18.8 µM (inactive) | 22.9 µM (inactive) | 37.1 µM (inactive) | 16.5 µM (inactive) | 20.7 µM (inactive) | 18.6 µM (inactive) | 19.2 µM (inactive) | 18.1 µM (inactive) | 21 µM (inactive) | 16.7 µM (inactive) | 21.4 µM (inactive) | 19.1 µM (inactive) |
| Nc1cc2nc(O)c(O)nc2cc1N | > 100 µM (inactive) | > 100 µM (inactive) | > 100 µM (inactive) | > 100 µM (inactive) | > 100 µM (inactive) | > 100 µM (inactive) | > 100 µM (inactive) | > 100 µM (inactive) | > 100 µM (inactive) | > 100 µM (inactive) | > 100 µM (inactive) | > 100 µM (inactive) | > 100 µM (inactive) | > 100 µM (inactive) | – | > 100 µM (inactive) | > 100 µM (inactive) | > 100 µM (inactive) | > 100 µM (inactive) |
| C[C@@H]1OC(=O)C[C@H]2CC(=O)N(CCc3cn(S(=O)(=O)C(F)(F)F)c4ccccc34)C[C@@H]21 | > 100 µM (inactive) | > 100 µM (inactive) | > 100 µM (inactive) | > 100 µM (inactive) | > 100 µM (inactive) | > 100 µM (inactive) | > 100 µM (inactive) | > 100 µM (inactive) | > 100 µM (inactive) | > 100 µM (inactive) | > 100 µM (inactive) | > 100 µM (inactive) | > 100 µM (inactive) | > 100 µM (inactive) | > 100 µM (inactive) | > 100 µM (inactive) | – | > 100 µM (inactive) | > 100 µM (inactive) |
